Laboratory results reported in US10899793B2, “Melanocortin ligands and methods of use thereof” (priority 2016, dated 2021).
Square brackets hold non-standard residues; d marks the D form. Peptide text beside a SMILES is read from it. Bip = N[C@@H](Cc1ccc(-c2ccccc2)cc1)C(=O)O; dPhe(4-I) = N[C@H](Cc1ccc(I)cc1)C(=O)O; 2Nal = N[C@@H](Cc1ccc2ccccc2c1)C(=O)O; d2Nal = N[C@H](Cc1ccc2ccccc2c1)C(=O)O; Bta = N[C@@H](Cc1csc2ccccc12)C(=O)O; Tic = O=C(O)[C@@H]1Cc2ccccc2CN1

Experiments:
mMC4R [1] = molecular target: T1, mMC4R (Mus musculus, UniProt P56450); assay: AlphaScreen cAMP agonist assay at mMC4R; settings: read-out: mMC4R Agonist, percent of the NDP-MSH maximal positive control
T1 sequence (P56450 whole entry): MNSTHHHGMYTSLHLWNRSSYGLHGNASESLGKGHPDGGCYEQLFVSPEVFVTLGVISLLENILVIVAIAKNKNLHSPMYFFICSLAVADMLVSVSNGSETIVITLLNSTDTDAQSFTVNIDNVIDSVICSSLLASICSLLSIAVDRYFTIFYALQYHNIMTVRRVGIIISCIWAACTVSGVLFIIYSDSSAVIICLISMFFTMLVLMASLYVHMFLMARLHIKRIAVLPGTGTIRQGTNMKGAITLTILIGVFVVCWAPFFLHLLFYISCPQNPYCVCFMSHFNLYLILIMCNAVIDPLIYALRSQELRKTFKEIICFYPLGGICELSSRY

mMC3R [2] = molecular target: T2, mMC3R (Mus musculus, UniProt P33033); settings: Table 1; Schild analysis, pA2 = -Log(Ki); Full Agonist = full dose-response, No Activity = no shift in EC50
T2 sequence (P33033 whole entry): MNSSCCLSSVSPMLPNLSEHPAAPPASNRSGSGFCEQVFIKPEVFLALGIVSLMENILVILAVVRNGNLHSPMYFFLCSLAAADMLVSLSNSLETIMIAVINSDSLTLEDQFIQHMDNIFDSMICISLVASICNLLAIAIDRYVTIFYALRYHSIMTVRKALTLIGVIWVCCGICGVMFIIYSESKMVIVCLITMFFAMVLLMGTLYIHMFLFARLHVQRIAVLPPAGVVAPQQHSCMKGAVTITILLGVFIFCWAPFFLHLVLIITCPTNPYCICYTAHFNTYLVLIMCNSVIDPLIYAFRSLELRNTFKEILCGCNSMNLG

mMC4R [3] = molecular target: T1, mMC4R; settings: for mMC4R Antagonist pA2 ± SEM: Table 1, Schild analysis, pA2 = -Log(Ki)
mMC3R [4] = molecular target: T2, mMC3R; assay: AlphaScreen cAMP agonist assay at mMC3R; settings: Table 1; @ 100 μM
mMC5R = mMC5R (Mus musculus, UniProt P41149); assay: AlphaScreen cAMP agonist assay at mMC5R; settings: read-out: percent of the NDP-MSH maximal positive control, Table 2
Sequence of mMC5R (P41149 whole entry): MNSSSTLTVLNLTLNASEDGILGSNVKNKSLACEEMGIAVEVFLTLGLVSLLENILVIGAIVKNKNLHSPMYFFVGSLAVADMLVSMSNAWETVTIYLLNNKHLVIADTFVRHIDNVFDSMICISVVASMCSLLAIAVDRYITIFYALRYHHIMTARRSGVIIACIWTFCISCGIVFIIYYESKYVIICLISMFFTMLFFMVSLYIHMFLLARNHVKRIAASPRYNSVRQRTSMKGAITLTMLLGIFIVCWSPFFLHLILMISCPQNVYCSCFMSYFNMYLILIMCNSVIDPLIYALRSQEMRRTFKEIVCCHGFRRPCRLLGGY

| Structure (SMILES) | activation at 100 µM (mMC4R [1]) [%] | mMC3R Antagonist pA2 ± SEM (mMC3R [2]) | mMC4R Antagonist pA2 ± SEM (mMC4R [3]) | mMC3R Agonist, percent of the NDP-MSH maximal positive control (mMC3R [4]) [% @ 100 μM] | activation at 100 µM (mMC5R) [%] | antagonist pA2 at the mMC4R (mMC4R [3]) |
| --- | --- | --- | --- | --- | --- | --- |
| CC(=O)N[C@@H](Cc1ccc(-c2ccccc2)cc1)C(=O)N[C@@H](CCCNC(=N)N)C(=O)N[C@H](Cc1ccc(I)cc1)C(=O)N[C@@H](Cc1ccc(-c2ccccc2)cc1)C(N)=O [SKY4-48-4, Ac-Bip-Arg-(pI)DPhe-Bip-NH2] (Ac-[Bip]R[dPhe(4-I)][Bip]-NH2) | 24 | No Activity | No Activity | – | – | – |
| CC(=O)N[C@@H](Cc1ccc2ccccc2c1)C(=O)N[C@@H](CCCNC(=N)N)C(=O)N[C@H](Cc1ccc(I)cc1)C(=O)N[C@@H](Cc1ccc(-c2ccccc2)cc1)C(N)=O [SKY4-48-8, Ac-Nal(2′)-Arg-(pI)DPhe-Bip-NH2] (Ac-[2Nal]R[dPhe(4-I)][Bip]-NH2) | – | Full Agonist | Full Agonist | – | – | – |
| CC(=O)N[C@@H](Cc1ccc(-c2ccccc2)cc1)C(=O)N[C@@H](CCCNC(=N)N)C(=O)N[C@H](Cc1ccc(I)cc1)C(=O)N[C@@H](Cc1csc2ccccc12)C(N)=O [SKY4-48-12, Ac-Bip-Arg-(pI)DPhe-3Bal-NH2] (Ac-[Bip]R[dPhe(4-I)][Bta]-NH2) | – | Full Agonist | No Activity | – | – | – |
| CC(=O)N[C@@H](Cc1csc2ccccc12)C(=O)N[C@@H](CCCNC(=N)N)C(=O)N[C@H](Cc1ccc(I)cc1)C(=O)N[C@@H](Cc1csc2ccccc12)C(N)=O [SKY4-48-13, Ac-3Bal-Arg-(pI)DPhe-3Bal-NH2] (Ac-[Bta]R[dPhe(4-I)][Bta]-NH2) | – | Full Agonist | – | – | – | – |
| CC(=O)N[C@@H](Cc1ccc2ccccc2c1)C(=O)N[C@@H](CCCNC(=N)N)C(=O)N[C@H](Cc1ccc(I)cc1)C(=O)N[C@@H](Cc1csc2ccccc12)C(N)=O [SKY4-48-16, Ac-Nal(2′)-Arg-(pI)DPhe-3Bal-NH2] (Ac-[2Nal]R[dPhe(4-I)][Bta]-NH2) | – | Full Agonist | – | – | – | – |
| CC(=O)N[C@H](Cc1ccc2ccccc2c1)C(=O)N[C@@H](CCCNC(=N)N)C(=O)N[C@H](Cc1ccc(I)cc1)C(=O)N[C@@H](Cc1csc2ccccc12)C(N)=O [SKY4-48-17, Ac-DNal(2′)-Arg-(pI)DPhe-3Bal-NH2] (Ac-[d2Nal]R[dPhe(4-I)][Bta]-NH2) | 45 | Full Agonist | – | – | – | – |
| CC(=O)N[C@@H](Cc1ccc(-c2ccccc2)cc1)C(=O)N[C@@H](CCCNC(=N)N)C(=O)N[C@H](Cc1ccc(I)cc1)C(=O)N1Cc2ccccc2C[C@H]1C(N)=O [SKY4-48-20, Ac-Bip-Arg-(pI)DPhe-Tic-NH2] (Ac-[Bip]R[dPhe(4-I)][Tic]-NH2) | – | Full Agonist | – | – | – | – |
| CC(=O)N[C@@H](Cc1ccc2ccccc2c1)C(=O)N[C@@H](CCCNC(=N)N)C(=O)N[C@H](Cc1ccc(I)cc1)C(=O)N[C@@H](Cc1ccccc1)C(N)=O [SKY4-48-32, Ac-Nal(2′)-Arg-(pI)DPhe-Phe-NH2] (Ac-[2Nal]R[dPhe(4-I)]F-NH2) | – | No Activity | No Activity | 42 | 49 | – |
| CC(=O)N[C@H](Cc1ccc2ccccc2c1)C(=O)N[C@@H](CCCNC(=N)N)C(=O)N[C@H](Cc1ccc(I)cc1)C(=O)N[C@@H](Cc1ccccc1)C(N)=O [SKY4-48-33, Ac-DNal(2′)-Arg-(pI)DPhe-Phe-NH2] (Ac-[d2Nal]R[dPhe(4-I)]F-NH2) | – | – | – | – | – | 6.9 |
| CC(=O)N[C@@H](CCCNC(=N)N)C(=O)N[C@@H](CCCNC(=N)N)C(=O)N[C@H](Cc1ccc(I)cc1)C(=O)N[C@@H](Cc1ccc2ccccc2c1)C(N)=O [SKY4-48-34, Ac-Arg-Arg-(pI)DPhe-Nal(2′)-NH2] | – | – | – | 51 | – | – |
| CC(=O)N[C@@H](Cc1c[nH]cn1)C(=O)N[C@@H](CCCNC(=N)N)C(=O)N[C@H](Cc1ccc(I)cc1)C(=O)N[C@@H](Cc1ccc2ccccc2c1)C(N)=O [SKY4-48-35, Ac-His-Arg-(pI)DPhe-Nal(2′)-NH2] (Ac-HR[dPhe(4-I)][2Nal]-NH2) | 35 | – | – | 57 | – | – |
| CC(=O)N[C@@H](Cc1ccc2ccccc2c1)C(=O)N[C@@H](CCCNC(=N)N)C(=O)N[C@H](Cc1ccc(I)cc1)C(=O)N[C@@H](Cc1ccc2ccccc2c1)C(N)=O [SKY4-48-40, Ac-Nal(2′)-Arg-(pI)DPhe-Nal(2′)-NH2] (Ac-[2Nal]R[dPhe(4-I)][2Nal]-NH2) | – | No Activity | No Activity | 39 | 45 | – |
| CC(=O)N[C@H](Cc1ccc2ccccc2c1)C(=O)N[C@@H](CCCNC(=N)N)C(=O)N[C@H](Cc1ccc(I)cc1)C(=O)N[C@@H](Cc1ccc(-c2ccccc2)cc1)C(N)=O [SKY5-146-2, Ac-DNal(2′)-Arg-(pI)DPhe-Bip-NH2] (Ac-[d2Nal]R[dPhe(4-I)][Bip]-NH2) | 42 | – | – | 30 | – | 6.6 |

Continued, in another order:

| activation at 100 µM (mMC4R [1]) [%] | mMC3R Antagonist pA2 ± SEM (mMC3R [2]) | mMC4R Antagonist pA2 ± SEM (mMC4R [3]) | mMC3R Agonist, percent of the NDP-MSH maximal positive control (mMC3R [4]) [% @ 100 μM] | activation at 100 µM (mMC5R) [%] | Structure (SMILES) | antagonist pA2 at the mMC4R (mMC4R [3]) |
| --- | --- | --- | --- | --- | --- | --- |
| 37 | Full Agonist | – | – | – | CC(=O)N[C@@H](Cc1csc2ccccc12)C(=O)N[C@@H](CCCNC(=N)N)C(=O)N[C@H](Cc1ccc(I)cc1)C(=O)N1Cc2ccccc2C[C@H]1C(N)=O [SKY4-48-21, Ac-3Bal-Arg-(pI)DPhe-Tic-NH2] (Ac-[Bta]R[dPhe(4-I)][Tic]-NH2) | – |
| 33 | Full Agonist | – | – | – | CC(=O)N[C@@H](Cc1ccc2ccccc2c1)C(=O)N[C@@H](CCCNC(=N)N)C(=O)N[C@H](Cc1ccc(I)cc1)C(=O)N1Cc2ccccc2C[C@H]1C(N)=O [SKY4-48-24, Ac-Nal(2′)-Arg-(pI)DPhe-Tic-NH2] (Ac-[2Nal]R[dPhe(4-I)][Tic]-NH2) | – |
| – | No Activity | – | 77 | 69 | CC(=O)N[C@@H](Cc1ccc(-c2ccccc2)cc1)C(=O)N[C@@H](CCCNC(=N)N)C(=O)N[C@H](Cc1ccc(I)cc1)C(=O)N[C@@H](Cc1ccccc1)C(N)=O [SKY4-48-28, Ac-Bip-Arg-(pI)DPhe-Phe-NH2] (Ac-[Bip]R[dPhe(4-I)]F-NH2) | – |
| – | No Activity | No Activity | – | 21 | CC(=O)N1Cc2ccccc2C[C@H]1C(=O)N[C@@H](CCCNC(=N)N)C(=O)N[C@H](Cc1ccc(I)cc1)C(=O)N[C@@H](Cc1ccccc1)C(N)=O [SKY4-48-30, Ac-Tic-Arg-(pI)DPhe-Phe-NH2] (Ac-[Tic]R[dPhe(4-I)]F-NH2) | – |
| – | No Activity | No Activity | 50 | 52 | CC(=O)N[C@@H](Cc1ccccc1)C(=O)N[C@@H](CCCNC(=N)N)C(=O)N[C@H](Cc1ccc(I)cc1)C(=O)N[C@@H](Cc1ccccc1)C(N)=O [SKY4-48-31, Ac-Phe-Arg-(pI)DPhe-Phe-NH2] (Ac-FR[dPhe(4-I)]F-NH2) | – |
| – | No Activity | No Activity | – | 50 | CC(=O)N[C@@H](Cc1csc2ccccc12)C(=O)N[C@@H](CCCNC(=N)N)C(=O)N[C@H](Cc1ccc(I)cc1)C(=O)N[C@@H](Cc1ccc2ccccc2c1)C(N)=O [SKY4-48-37, Ac-3Bal-Arg-(pI)DPhe-Nal(2′)-NH2] (Ac-[Bta]R[dPhe(4-I)][2Nal]-NH2) | – |
| – | No Activity | – | 44 | 61 | CC(=O)N[C@@H](Cc1ccccc1)C(=O)N[C@@H](CCCNC(=N)N)C(=O)N[C@H](Cc1ccc(I)cc1)C(=O)N[C@@H](Cc1ccc2ccccc2c1)C(N)=O [SKY4-48-39, Ac-Phe-Arg-(pI)DPhe-Nal(2′)-NH2] (Ac-FR[dPhe(4-I)][2Nal]-NH2) | – |
| – | No Activity | No Activity | 32 | 55 | CC(=O)N[C@@H](Cc1ccc(-c2ccccc2)cc1)C(=O)N[C@@H](CCCNC(=N)N)C(=O)N[C@H](Cc1ccc(I)cc1)C(=O)N[C@H](Cc1ccc2ccccc2c1)C(N)=O [SKY4-48-44, Ac-Bip-Arg-(pI)DPhe-DNal(2′)-NH2] (Ac-[Bip]R[dPhe(4-I)][d2Nal]-NH2) | – |
| – | No Activity | – | 22 | 39 | CC(=O)N[C@@H](Cc1ccccc1)C(=O)N[C@@H](CCCNC(=N)N)C(=O)N[C@H](Cc1ccc(I)cc1)C(=O)N[C@H](Cc1ccc2ccccc2c1)C(N)=O [SKY4-48-47, Ac-Phe-Arg-(pI)DPhe-DNal(2′)-NH2] (Ac-FR[dPhe(4-I)][d2Nal]-NH2) | – |
| – | Full Agonist | – | – | – | CC(=O)N[C@@H](Cc1c[nH]cn1)C(=O)N[C@@H](CCCNC(=N)N)C(=O)N[C@H](Cc1ccc(I)cc1)C(=O)N[C@@H](Cc1ccccc1)C(N)=O [SKY5-146-3, Ac-His-Arg-(pI)DPhe-Phe-NH2] (Ac-HR[dPhe(4-I)]F-NH2) | – |
| – | No Activity | No Activity | 37 | 35 | CC(=O)N[C@@H](Cc1csc2ccccc12)C(=O)N[C@@H](CCCNC(=N)N)C(=O)N[C@H](Cc1ccc(I)cc1)C(=O)N[C@@H](Cc1ccccc1)C(N)=O [SKY5-146-4, Ac-3Bal-Arg-(pI)DPhe-Phe-NH2] (Ac-[Bta]R[dPhe(4-I)]F-NH2) | – |
| 36 | Full Agonist | – | – | – | CC(=O)N1Cc2ccccc2C[C@H]1C(=O)N[C@@H](CCCNC(=N)N)C(=O)N[C@H](Cc1ccc(I)cc1)C(=O)N1Cc2ccccc2C[C@H]1C(N)=O [SKY6-24-1, Ac-Tic-Arg-(pI)DPhe-Tic-NH2] (Ac-[Tic]R[dPhe(4-I)][Tic]-NH2) | – |
